Measured values reported in patent US20230116703A1, “NOVEL ERGOLINES AND METHODS OF TREATING MOOD DISORDERS” (priority 2021, published 2023).
Where two headings read alike, the source gives them in different places.

What was measured:
5-HT1A receptor = target: T1, 5-HT1A receptor (Homo sapiens, UniProt P08908); assay: cell-based
T1 construct: host or cells: CHO cells
T1 sequence (P08908 1-422): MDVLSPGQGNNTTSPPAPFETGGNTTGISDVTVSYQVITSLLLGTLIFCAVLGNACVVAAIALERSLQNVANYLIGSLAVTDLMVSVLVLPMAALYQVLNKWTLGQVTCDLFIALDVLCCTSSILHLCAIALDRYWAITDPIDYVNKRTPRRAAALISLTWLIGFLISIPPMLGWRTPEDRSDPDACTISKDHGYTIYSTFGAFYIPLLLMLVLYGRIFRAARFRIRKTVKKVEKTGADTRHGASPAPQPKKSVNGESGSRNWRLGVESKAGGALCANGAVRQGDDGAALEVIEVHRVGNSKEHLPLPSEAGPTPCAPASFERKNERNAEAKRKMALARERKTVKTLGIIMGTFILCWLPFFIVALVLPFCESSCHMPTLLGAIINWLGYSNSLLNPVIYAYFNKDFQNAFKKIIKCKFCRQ

5-HT2B receptor = target: T2, 5-HT2B receptor (Homo sapiens, UniProt P41595); assay: cell-based; conditions: Ca^2+ flux, agonist; read-out: 5-HT2B EC50
T2 construct: host or cells: HEK293
T2 sequence (P41595 whole entry): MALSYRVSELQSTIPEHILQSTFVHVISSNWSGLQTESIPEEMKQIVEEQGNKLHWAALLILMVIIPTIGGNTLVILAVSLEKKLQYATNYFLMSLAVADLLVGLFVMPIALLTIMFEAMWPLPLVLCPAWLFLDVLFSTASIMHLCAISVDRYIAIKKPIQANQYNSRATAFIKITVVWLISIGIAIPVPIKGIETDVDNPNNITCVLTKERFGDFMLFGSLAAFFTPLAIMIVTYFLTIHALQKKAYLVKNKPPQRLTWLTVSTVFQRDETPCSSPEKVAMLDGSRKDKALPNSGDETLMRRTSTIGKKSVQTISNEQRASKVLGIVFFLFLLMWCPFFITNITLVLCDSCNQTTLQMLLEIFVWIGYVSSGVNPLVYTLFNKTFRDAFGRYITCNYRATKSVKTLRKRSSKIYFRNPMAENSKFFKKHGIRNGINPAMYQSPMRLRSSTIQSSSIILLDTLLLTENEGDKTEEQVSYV

C57BL/6 mice = assay: Head twitch response (HTR) in mice; type: in vivo, mouse; conditions: SC; for ED50: 20 min, read-out: ED50 (95% CI); for ED50 / Most Efficacious Dose / Emax (95% CI): mouse HTR; for ED50 / Emax (95% CI): 20 min observation, curve fit, poor in some cases
Procedure: Agonists of the 5-HT2A receptor are well known to induce this effect in rodents and the potency of this HTR is correlated with hallucinogenic potency in humans.
Animals. Adult male C57BL/6 mice, aged 6-8 weeks (body weight 20-25 g) were used in this experiment. Animals were housed under controlled temperatures and 12-hour light/dark cycles (lights on between 07:00-19:00 h), with ad libitum food and water. This study was carried out in strict accordance with the requirements of the Committee for the Purpose of Control and Supervision of Experiments on Animals (CPCSEA), India. All efforts were made to minimize suffering.
Drugs and Drug Administration. Compound 1 was synthesized as described above. It was administered subcutaneously (SC) dissolved in saline vehicle at a volume of 10 mL/kg. Five doses were tested, with n=6 animals/group. Doses were calculated on the basis of the freebase.
Procedure. Mice were administered one dose of the drug and immediately placed into a small open field for behavioral observation. Animals were observed continuously for 20 mins and the number of head twitches (HTs) were counted by an observer blind to the treatment condition.
Statistical Analysis. The data points shown are the mean±standard error of the mean (SEM). Analysis was performed using GraphPad Prism 6. Curves were fit using a non-linear gaussian distribution to calculate ED50 and Emax values.
Additional disclosed compounds were tested in the mouse head twitch response (HTR) assay according to the procedure described in Example 43. […] Lastly, compounds with much larger benzyl and phenethyl substituents on the amine nitrogen (e.g., 10 and 11) were low efficacy in this assay, consistent with their lower maximal efficacy in the arrestin functional assay (see Example 41).

5-HT2A receptor [1] = target: T3, 5-HT2A receptor (Homo sapiens, UniProt P28223); assay: PathHunter beta-arrestin recruitment assay at 5-HT2A; type: cell-based; conditions: for agonist type in arrestin recruitment assay (in words) / Emax: 5-HT2A beta-arrestin
T3 construct: host or cells: HEK293
T3 sequence (P28223 whole entry): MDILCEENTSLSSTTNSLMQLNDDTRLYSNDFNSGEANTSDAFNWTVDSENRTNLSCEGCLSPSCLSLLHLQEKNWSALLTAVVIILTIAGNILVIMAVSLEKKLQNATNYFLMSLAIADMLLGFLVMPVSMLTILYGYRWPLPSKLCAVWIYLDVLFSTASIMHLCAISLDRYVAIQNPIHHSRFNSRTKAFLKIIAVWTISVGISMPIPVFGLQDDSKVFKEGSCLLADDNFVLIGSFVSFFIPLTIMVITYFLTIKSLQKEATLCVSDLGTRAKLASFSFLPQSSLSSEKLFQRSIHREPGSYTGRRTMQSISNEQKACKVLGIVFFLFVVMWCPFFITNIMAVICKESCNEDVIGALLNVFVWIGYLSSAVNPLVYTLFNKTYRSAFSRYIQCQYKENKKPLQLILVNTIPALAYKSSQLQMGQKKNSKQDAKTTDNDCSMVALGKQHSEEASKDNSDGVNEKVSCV
Procedure: The degree of arrestin bias varied substantially across the other compounds tested as well.
Arrestin Functional Assay at 5-HT2A. Recruitment of beta-arrestin was determined using a PathHunter assay at Eurofins DiscoverX (Fremont, Calif.) according to their standard protocols. PathHunter GPCR beta-arrestin assays take advantage of DiscoverX's proprietary Enzyme Fragment Complementation technology. The GPCR is fused in frame with a small enzyme donor fragment ProLink™ (PK) and co-expressed in cells stably expressing a fusion protein of beta-arrestin and the larger, N-terminal deletion mutant of beta-galactosidase. Activation of the GPCR (5-HT2A receptor in this case) stimulates binding of beta-arrestin to the PK-tagged GPCR and forces complementation of the two enzyme fragments, resulting in the formation of an active beta-galactosidase enzyme. This interaction leads to an increase in enzyme activity that can be measured using chemiluminescent PathHunter Detection Reagents. Briefly, PathHunter cells expressing 5-HT2A receptors were seeded in a volume of 20 μL into 384-well plates and incubated at 37° C. for the appropriate time prior to testing. […] Plates were then imaged on a microplate reader and the agonist activity was calculated using the following formula: % Activity=100%×(mean RLU of test sample−mean RLU of vehicle control)/(mean MAX control ligand−mean RLU of vehicle control), where RLU=relative light units.

[2] = Metabolic stability in rat liver microsomes (RLM); conditions: for t1/2: RLM, 0.50 mg protein per mL; for microsomal CLint at 1 μM: both, rat, pooled rat liver microsomes, pH 7.4
5-HT2A receptor [3] = target: T3, 5-HT2A receptor; assay: biochemical; type: binding; conditions: 1 nM [^3H]ketanserin, HEK293 stable cell line; read-out: 5-HT2A Receptor Ki (nM) ([^3H]ketanserin)
Method in brief: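 Test compounds competed with [^3H]ketanserin for receptor binding, and affinity was derived from the radioligand displacement.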

5-HT2A receptor [4] = target: T3, 5-HT2A receptor; assay: cell-based; type: cell-based; conditions: Ca^2+ flux, agonist; read-out: 5-HT2A EC50
[5] = Metabolic stability in human liver microsomes (HLM); type: in vitro ADME; conditions: for t1/2: 1 μM, 0.50 mg protein per mL; for microsomal CLint at 1 μM: both sexes, human, pooled human liver microsomes, pH 7.4, 0.50 mg protein per mL
Description: HLM Stability. Pooled HLM from adult male and female donors (Corning 452117) were used.

human 5-HT2C receptor = target: T4, human 5-HT2C receptor (Homo sapiens, UniProt P28335); assay: cell-based; conditions: Ca^2+ flux, agonist
T4 sequence (P28335 33-458): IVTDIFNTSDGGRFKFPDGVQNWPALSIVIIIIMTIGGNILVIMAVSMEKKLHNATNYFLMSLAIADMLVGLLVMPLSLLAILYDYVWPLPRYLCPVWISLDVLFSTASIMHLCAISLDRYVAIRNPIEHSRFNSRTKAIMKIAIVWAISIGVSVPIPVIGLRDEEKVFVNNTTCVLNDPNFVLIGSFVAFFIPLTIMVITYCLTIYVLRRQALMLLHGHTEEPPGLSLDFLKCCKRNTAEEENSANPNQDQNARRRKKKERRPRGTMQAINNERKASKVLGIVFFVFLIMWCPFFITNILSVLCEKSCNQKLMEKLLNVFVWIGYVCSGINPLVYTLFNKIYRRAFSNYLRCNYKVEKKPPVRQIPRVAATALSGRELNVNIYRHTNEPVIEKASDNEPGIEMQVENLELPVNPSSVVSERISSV

[6] = Metabolic stability in mouse liver microsomes (MLM); type: in vitro ADME; conditions: 0.50 mg protein per mL; for t1/2: MLM (CD-1), 1 μM; for microsomal CLint at 1 μM: mouse, pooled mouse liver microsomes, pH 7.4, MLM (CD-1)
Description: MLM Stability Pooled MLM from CD-1 mice (BIOIVT M00501) were used.

[7] = Ca^2+ flux, agonist, read-out: 5-HT1A EC50

| Structure (SMILES) | EC50 (5-HT1A receptor; [7]) | EC50 (5-HT2B receptor) | ED50 (C57BL/6 mice) | Most Efficacious Dose (C57BL/6 mice) | Emax (95% CI) (C57BL/6 mice) | EC50 (5-HT2A receptor [1]) | agonist type in arrestin recruitment assay (in words) (5-HT2A receptor [1]) | t1/2 [2] | microsomal CLint at 1 μM [2] | Ki (5-HT2A receptor [3]) | EC50 (5-HT2A receptor [4]) | t1/2 [5] | microsomal CLint at 1 μM [5] | EC50 (human 5-HT2C receptor) | t1/2 [6] | microsomal CLint at 1 μM [6] | Emax (5-HT2A receptor [1]) | EC50 (5-HT1A receptor) | # HTR at Most Efficacious Dose (C57BL/6 mice; mouse, head twitches in 20 min) |
| --- | --- | --- | --- | --- | --- | --- | --- | --- | --- | --- | --- | --- | --- | --- | --- | --- | --- | --- | --- |
| CCC[C@@H](C)NC(=O)[C@@H]1C=C2c3cccc4[nH]cc(c34)C[C@H]2N(CCC)C1 [Compound 7, (6aR,9R)—N—((R)-pentan-2-yl)-7-propyl-4,6,6a,7,8,9-hexahydroindolo[4,3-fg]quinoline-9-carboxamide] | 12.8 nM | 364 nM | 58.9 mg/kg | 1 mg/kg | 720.4 (???-???) | 1.6 nM | full agonists | 1.612 min | 860 µL/min/mg | 0.85 nM | 13.2 nM | 1.65 min | 840 µL/min/mg | 1.99 nM | 0.541 min | 2560 µL/min/mg |  |  |  |
| C=CCN1C[C@H](C(=O)N[C@H](C)CC)C=C2c3cccc4[nH]cc(c34)C[C@H]21 [Compound 8, (6aR,9R)-7-allyl-N—((R)-sec-butyl)-4,6,6a,7,8,9-hexahydroindolo[4,3-fg]quinoline-9-carboxamide] | 2.53 nM | 22.2 nM | 0.0282 mg/kg | 1 mg/kg | 12.03 (9.571-14.68) | 1.71 nM | full agonists | 7.7 min | 180 µL/min/mg | 2.38 nM | 0.678 nM | 7.9 min | 174 µL/min/mg | 4.05 nM | 3.7 min | 377 µL/min/mg |  |  |  |
| CC[C@@H](C)NC(=O)[C@@H]1C=C2c3cccc4[nH]cc(c34)C[C@H]2N(C)C1 [Int8, (6aR,9R)—N—((R)-sec-butyl)-7-methyl-4,6,6a,7,8,9-hexahydroindolo[4,3-fg]quinoline-9-carboxamide] | 9.69 nM | 71.9 nM | 0.106 mg/kg | 1 mg/kg | 14.34 (10.41-31.47) | 4.05 nM | partial agonists | 99.5 min | 13.9 µL/min/mg | 1.07 nM | 10.3 nM | 64.9 min | 21.3 µL/min/mg | 7.32 nM | 39.9 min | 34.7 µL/min/mg | < 60% |  |  |
| CCC(CC)NC(=O)[C@@H]1C=C2c3cccc4[nH]cc(c34)C[C@H]2N(C)C1 [Int14, (6aR,9R)-7-methyl-N-(pentan-3-yl)-4,6,6a,7,8,9-hexahydroindolo[4,3-fg]quinoline-9-carboxamide] |  | > 10000 nM | 1.47 mg/kg | 1 mg/kg | 21.63 (10.59-???) | 1.48 nM | partial agonists | 37.988 min | 36.5 µL/min/mg | 0.47 nM | 15.9 nM | 17.593 min | 78.8 µL/min/mg | 3.63 nM | 6.07 min | 228 µL/min/mg | < 60% | 46 nM |  |
| CCC[C@@H](C)NC(=O)[C@@H]1C=C2c3cccc4[nH]cc(c34)C[C@H]2N(C)C1 [Int17, (6aR,9R)-7-methyl-N—((R)-pentan-2-yl)-4,6,6a,7,8,9-hexahydroindolo[4,3-fg]quinoline-9-carboxamide] | 7.01 nM | 70.8 nM | 0.00405 mg/kg | 0.32 mg/kg | 4.96 (3.764-6.286) | 1.19 nM | partial agonists | 27.894 min | 49.7 µL/min/mg | 0.41 nM | 9.67 nM | 15.865 min | 87.4 µL/min/mg | 2.53 nM | 8.252 min | 168 µL/min/mg | < 60% |  | 6.0 |
